# Experimental data from patent publication US20260234135A1, “CRYSTALLINE FORMS OR SALTS OF A DEUTERATED COMPOUND” (ALEBUND PHARMACEUTICALS (HONG KONG) LIMITED, priority 2023, published 2026).
# Like-named read-outs stand apart in the source and are kept apart here.
# How the values were obtained:
# [1] = Hygroscopicity evaluation by DVS at 25° C.; format: physicochemical
# Protocol: DVS was measured via a SMS (Surface Measurement Systems) DVS Intrinsic. The relative humidity at 25° C. were calibrated against deliquescence point of LiCl, Mg(NO3)2 and KCl.
smiles,measurement,setting,value
[2H]C([2H])(Cc1nc(-c2ccccc2)oc1C)Oc1ccc(C[C@H](OC)C(=O)O)c2sccc12 [free acid Form E],Area (%) of impurity peak RRT 0.88,"40° C./75% RH, 2 weeks",0.33%
same,Area (%) of impurity peak RRT 1.14,"40° C./75% RH, 2 weeks",0.15%
same,Area (%) of impurity peak RRT 1.28,"40° C./75% RH, 2 weeks",0.18%
same,Area (%) of impurity peak RRT 1.33,"40° C./75% RH, 2 weeks",0.25%
same,Area (%) of impurity peak RRT 0.88,"40° C./75% RH, 4 weeks",0.35%
same,Area (%) of impurity peak RRT 1.14,"40° C./75% RH, 4 weeks",0.15%
same,Area (%) of impurity peak RRT 1.28,"40° C./75% RH, 4 weeks",0.23%
same,Area (%) of impurity peak RRT 1.33,"40° C./75% RH, 4 weeks",0.27%
same,Area (%) of impurity peak RRT 0.88,"40° C./75% RH, 8 weeks",0.32%
same,Area (%) of impurity peak RRT 1.14,"40° C./75% RH, 8 weeks",0.13%
same,Area (%) of impurity peak RRT 1.28,"40° C./75% RH, 8 weeks",0.20%
same,Area (%) of impurity peak RRT 1.33,"40° C./75% RH, 8 weeks",0.27%
same,"HPLC Purity (area %), main peak RRT 1.00","40° C./75% RH/open, 2 weeks",99.08 area %
same,HPLC Reults of initial (%),"40° C./75% RH/open, 2 weeks",100.07%
same,"HPLC Purity (area %), main peak RRT 1.00","40° C./75% RH/open, 4 weeks",99.00 area %
same,HPLC Reults of initial (%),"40° C./75% RH/open, 4 weeks",99.99%
same,"HPLC Purity (area %), main peak RRT 1.00","40° C./75% RH/open, 8 weeks",99.03 area %
same,HPLC Reults of initial (%),"40° C./75% RH/open, 8 weeks",100.02%
same,Area (%) of impurity peak RRT 0.88,"60° C., 2 weeks",0.32%
same,Area (%) of impurity peak RRT 1.14,"60° C., 2 weeks",0.16%
same,Area (%) of impurity peak RRT 1.28,"60° C., 2 weeks",0.23%
same,Area (%) of impurity peak RRT 1.33,"60° C., 2 weeks",0.25%
same,Area (%) of impurity peak RRT 0.88,"60° C., 4 weeks",0.38%
same,Area (%) of impurity peak RRT 1.14,"60° C., 4 weeks",0.17%
same,Area (%) of impurity peak RRT 1.28,"60° C., 4 weeks",0.26%
same,Area (%) of impurity peak RRT 1.33,"60° C., 4 weeks",0.29%
same,Area (%) of impurity peak RRT 0.88,"60° C., 8 weeks",0.34%
same,Area (%) of impurity peak RRT 1.14,"60° C., 8 weeks",0.14%
same,Area (%) of impurity peak RRT 1.28,"60° C., 8 weeks",0.23%
same,Area (%) of impurity peak RRT 1.33,"60° C., 8 weeks",0.27%
same,Form or purity change after storage,60° C./close and 40° C./75% RH/open for 2/4/8 weeks,No form or purity decrease
same,"HPLC Purity (area %), main peak RRT 1.00","60° C./close, 2 weeks",99.04 area %
same,HPLC Reults of initial (%),"60° C./close, 2 weeks",100.03%
same,"HPLC Purity (area %), main peak RRT 1.00","60° C./close, 4 weeks",98.89 area %
same,HPLC Reults of initial (%),"60° C./close, 4 weeks",99.88%
same,"HPLC Purity (area %), main peak RRT 1.00","60° C./close, 8 weeks",98.96 area %
same,HPLC Reults of initial (%),"60° C./close, 8 weeks",99.95%
same,Area (%) of impurity peak RRT 0.88,Initial,0.31%
same,Area (%) of impurity peak RRT 1.14,Initial,0.16%
same,Area (%) of impurity peak RRT 1.28,Initial,0.26%
same,Area (%) of impurity peak RRT 1.33,Initial,0.25%
same,"HPLC Purity (area %), main peak RRT 1.00",Initial,99.01 area %
[2H]C([2H])(Cc1nc(-c2ccccc2)oc1C)Oc1ccc(C[C@H](OC)C(=O)[O-])c2sccc12.[Na+] [Na salt Form A],Water uptake up to 80% RH,"[1]; DVS, 25° C.",5.5%
same,Form change after DVS test,[1]; XRPD after DVS,form change was observed
same,Area (%) of impurity peak RRT 0.89,"40° C./75% RH, 2 weeks",0.04%
same,Area (%) of impurity peak RRT 1.14,"40° C./75% RH, 2 weeks",0.03%
same,Area (%) of impurity peak RRT 1.34,"40° C./75% RH, 2 weeks",0.23%
same,Area (%) of impurity peak RRT 0.89,"40° C./75% RH, 4 weeks",0.07%
same,Area (%) of impurity peak RRT 1.34,"40° C./75% RH, 4 weeks",0.23%
same,Area (%) of impurity peak RRT 0.89,"40° C./75% RH, 8 weeks",0.05%
same,Area (%) of impurity peak RRT 1.34,"40° C./75% RH, 8 weeks",0.24%
same,"HPLC Purity (area %), main peak RRT 1.00","40° C./75% RH/open, 2 weeks",99.71 area %
same,HPLC Reults of initial (%),"40° C./75% RH/open, 2 weeks",100.03%
same,"HPLC Purity (area %), main peak RRT 1.00","40° C./75% RH/open, 4 weeks",99.69 area %
same,HPLC Reults of initial (%),"40° C./75% RH/open, 4 weeks",100.02%
same,"HPLC Purity (area %), main peak RRT 1.00","40° C./75% RH/open, 8 weeks",99.71 area %
same,HPLC Reults of initial (%),"40° C./75% RH/open, 8 weeks",100.03%
same,Form or purity change after storage,60° C. for 8 weeks,Slightly purity decrease and form change
same,Area (%) of impurity peak RRT 0.58,"60° C., 2 weeks",0.10%
same,Area (%) of impurity peak RRT 0.79,"60° C., 2 weeks",0.07%
same,Area (%) of impurity peak RRT 0.81,"60° C., 2 weeks",0.10%
same,Area (%) of impurity peak RRT 0.89,"60° C., 2 weeks",0.08%
same,Area (%) of impurity peak RRT 0.91,"60° C., 2 weeks",0.05%
same,Area (%) of impurity peak RRT 1.14,"60° C., 2 weeks",0.05%
same,Area (%) of impurity peak RRT 1.34,"60° C., 2 weeks",0.22%
same,Area (%) of impurity peak RRT 0.29,"60° C., 4 weeks",0.07%
same,Area (%) of impurity peak RRT 0.58,"60° C., 4 weeks",0.16%
same,Area (%) of impurity peak RRT 0.63,"60° C., 4 weeks",0.05%
same,Area (%) of impurity peak RRT 0.79,"60° C., 4 weeks",0.13%
same,Area (%) of impurity peak RRT 0.81,"60° C., 4 weeks",0.20%
same,Area (%) of impurity peak RRT 0.86,"60° C., 4 weeks",0.06%
same,Area (%) of impurity peak RRT 0.89,"60° C., 4 weeks",0.08%
same,Area (%) of impurity peak RRT 0.91,"60° C., 4 weeks",0.10%
same,Area (%) of impurity peak RRT 0.95,"60° C., 4 weeks",0.05%
same,Area (%) of impurity peak RRT 1.34,"60° C., 4 weeks",0.20%
same,Area (%) of impurity peak RRT 0.29,"60° C., 8 weeks",0.11%
same,Area (%) of impurity peak RRT 0.58,"60° C., 8 weeks",0.25%
same,Area (%) of impurity peak RRT 0.63,"60° C., 8 weeks",0.12%
same,Area (%) of impurity peak RRT 0.79,"60° C., 8 weeks",0.19%
same,Area (%) of impurity peak RRT 0.81,"60° C., 8 weeks",0.35%
same,Area (%) of impurity peak RRT 0.86,"60° C., 8 weeks",0.06%
same,Area (%) of impurity peak RRT 0.91,"60° C., 8 weeks",0.21%
same,Area (%) of impurity peak RRT 0.95,"60° C., 8 weeks",0.09%
same,Area (%) of impurity peak RRT 1.34,"60° C., 8 weeks",0.20%
same,"HPLC Purity (area %), main peak RRT 1.00","60° C./close, 2 weeks",99.33 area %
same,HPLC Reults of initial (%),"60° C./close, 2 weeks",99.65%
same,"HPLC Purity (area %), main peak RRT 1.00","60° C./close, 4 weeks",98.91 area %
same,HPLC Reults of initial (%),"60° C./close, 4 weeks",99.23%
same,"HPLC Purity (area %), main peak RRT 1.00","60° C./close, 8 weeks",98.43 area %
same,HPLC Reults of initial (%),"60° C./close, 8 weeks",98.75%
same,Area (%) of impurity peak RRT 0.89,Initial,0.05%
same,Area (%) of impurity peak RRT 1.14,Initial,0.05%
same,Area (%) of impurity peak RRT 1.34,Initial,0.22%
same,"HPLC Purity (area %), main peak RRT 1.00",Initial,99.68 area %
same,Form,"XRPD after 40° C./75% RH/open, 2/4/8 weeks",New form
